# From patent US8653143B2, “Use of panduratin derivative or Boesenbergia pandurata extract” (Newtree Co., Ltd., priority 2008, dated 2014)
# How the values were obtained:
# Assay type in all cases: in vivo, C57BL/6 mice
# [1] = system: mice in which obesity is induced with a high-fat diet; experiment: Body weight and food intake of high-fat diet obese mice treated with panduratin derivatives; conditions: for body weight increase after 8 weeks: high-fat diet control about 32%; for food intake, test group versus other groups: high-fat diet obese C57BL/6 mice
# Text: (§1) Mice in which obesity is induced with a high-fat diet were selected as a model to investigate the obesity-relieving effect of panduratin A prepared in Example 2. 3-week-old C57BL/6 mice were accustomed for a week, and a high-fat diet (Product # D12492, Research Diet Inc., New Brunswick, N.J., USA) was provided for 6 weeks to induce obesity. Then, the mice were randomly divided into 3 groups, 12 per each group. For the test group, panduratin A suspended in 0.25% carboxymethyl cellulose was administered once a day at regular hours for 8 weeks, with an administration dose of 50 mg/kg body weight. For comparison, 0.25% carboxymethyl cellulose only (control) of the same amount as that for the test group or sibutramine suspended in 0.25% carboxymethyl cellulose (5 mg/kg body weight) was orally administered. Then, food intake and body weight of the mice were measured every week, for 8 weeks.
# (§2) The effect of isopanduratin A prepared in Example 3 on body weight and body fat decrease was investigated in the same manner as in Examples 5 and 6. After administration for 8 weeks, there was no difference between the test group and other groups in food intake.
# (§3) The effect of 4-hydroxypanduratin A prepared in Example 4 on body weight and body fat decrease was investigated in the same manner as in Examples 5 and 6. After administration for 8 weeks, there was no difference between the 4-hydroxypanduratin-administered test group and other groups in food intake.
# [2] = system: mice in which obesity is induced with a high-fat diet; experiment: Serum total cholesterol, triglyceride, total lipid and leptin in high-fat diet obese mice; conditions: sibutramine 5 mg/kg orally for 8 weeks
# Experimental: (§4) 3-week-old C57BL/6 mice were accustomed for a week, and a high-fat diet (Product # D12492, Research Diet Inc., New Brunswick, N.J., USA) was provided for 6 weeks to induce obesity. Then, the mice were randomly divided into 3 groups, 12 per each group. For the test group, panduratin A suspended in 0.25% carboxymethyl cellulose was administered once a day at regular hours for 8 weeks, with an administration dose of 50 mg/kg body weight. For comparison, 0.25% carboxymethyl cellulose only (control) of the same amount as that for the test group or sibutramine suspended in 0.25% carboxymethyl cellulose (5 mg/kg body weight) was orally administered. After administration for 8 weeks, the mice were fasted for at least 12 hours. After cutting open the abdomen, blood was taken from the heart. The blood was centrifuged at 2,800 rpm at 4° C. for 30 minutes to separate the serum. The separated serum was stored at −70° C.
# Total cholesterol level in the serum was determined by measuring absorbance at 500 nm using a standard enzyme assay kit. Serum triglyceride level was determined by measuring absorbance at 546 nm using a glycerol phosphate oxidase assay kit. Serum total lipid level was determined by measuring absorbance at 540 nm by the Frings method. Serum leptin level was determined by radioimmunoassay (RIA) using a mouse leptin RIA kit (Linco Research, Inc. USA).
# [3] = system: mice in which obesity is induced with a high-fat diet; experiment: Body weight and food intake of high-fat diet obese mice treated with Boesenbergia pandurata extract; conditions: sibutramine 5 mg/kg orally for 8 weeks; high-fat diet control about 33%
# Text: as §1, with “of the Boesenbergia pandurata extract” for “of panduratin A”, “Example 1. 4-week-old” for “Example 2. 3-week-old”, “groups, 8” for “groups, 12”, “group, Boesenbergia pandurata extract” for “group, panduratin A”, “of 200” for “of 50”
# [4] = system: mice in which obesity is induced with a high-fat diet; experiment: Body fat (abdominal, perirenal, epididymal) in high-fat diet obese mice treated with panduratin derivatives; conditions: administration for 8 weeks, same manner as panduratin A (50 mg/kg)
# Experimental: as §4, with “perirenal fat and epididymal fat were” for “blood was”, “out, washed with physiological saline, dried, and then weighed.” for “from the heart. The blood was centrifuged at 2,800 rpm at 4° C. for 30 minutes to separate the serum. The separated serum was stored at −70° C.”
# as §2, §3
# [5] = 50 mg/kg body weight once a day for 8 weeks
Structure (SMILES),body weight increase after 8 weeks ([1]; sibutramine 5 mg/kg body weight orally for 8 weeks),total cholesterol level in the serum ([2]; control 140.73±16.47),serum triglyceride level ([2]; control 154.36±27.02),total lipid level in the serum ([2]; control 555.18±80.86),body weight increase after 8 weeks [3],decrease of epididymal fat weight as compared to the high-fat diet control group [4],decrease of perirenal fat weight as compared to the high-fat diet control group [4],"food intake, test group versus other groups [1, 5]","body weight increase after 8 weeks [1, 5]"
CC(C)CC(N(C)C)C1(c2ccc(Cl)cc2)CCC1 (stereo not shown) [sibutramine],about 20%,122.4 ± 22.6 mg/dL,150.2 ± 20.19 mg/dL,493.2 ± 111.9 mg/dL,about 27%,–,–,–,–
CC(C)=CC[C@@H]1C(C)=CC[C@@H](c2ccccc2)[C@@H]1C(=O)c1c(O)cc(O)cc1O [4-hydroxypanduratin A],–,–,–,–,–,46%,33%,no difference,~13%
"COc1cc(O)cc(O)c1C(=O)[C@@H]1[C@H](CC=C(C)C)C(C)=CC[C@H]1c1ccccc1 [isopanduratin A, (4,6-dihydroxy-2-methoxyphenyl)[3-methyl-2-(3-methylbut-2-enyl)-6-phenylcyclohex-3-enyl]methanone]",–,–,–,–,–,32%,25%,no difference,~17%
